Results as given in patent publication US20220281802A1, “COMPOUNDS, PHARMACEUTICAL COMPOSITIONS, AND METHODS OF THEIR USE IN THE INHIBITION OF INTERACTION BETWEEN IL18 AND IL18R” (Beth Israel Deaconess Medical Center, Inc., priority 2019, published 2022).
Where two headings read alike, the source gives them in different places.

T1: IL18 (Homo sapiens, UniProt Q14116)
T1 sequence (Q14116 37-193): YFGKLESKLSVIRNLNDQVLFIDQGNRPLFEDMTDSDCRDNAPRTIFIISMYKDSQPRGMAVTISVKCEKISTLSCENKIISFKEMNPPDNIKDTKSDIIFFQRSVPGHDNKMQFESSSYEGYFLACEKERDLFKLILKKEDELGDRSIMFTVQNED


What was measured:
IL18 [1] = target: T1, IL18; experiment: Microscale Thermophoresis (MST) binding; parameters: Recombinant IL18 was fluorescently labelled using the lysine reactive Pico RED NT647 dye
Protocol: Microscale Thermophoresis
Recombinant IL18 was fluorescently labelled using the lysine reactive Pico RED NT647 dye from NanoTemper Technologies and stored in a PBS buffer containing 0.05% TWEEN (Buffer A). Stock concentration of labelled IL18 was […]. Working concentrations of IL18 were diluted in Buffer A to 10, 40, or 50 nM. Except for the positive control, IL18BP, stock concentration for all compounds, or ligands, was 10-25 mM in 100% DMSO. Ligands were diluted in Buffer A to working concentrations of 50-500 μM. Containing 0.8-2% DMSO. Stock concentration of IL8BP, was 50 μM, stored in 20 mM Tris-HI buffer (pH 8.0) containing 0.4 M Urea and 10% glycerol (Buffer B). Prior to MST experiments being performed 16 preparations of two-fold serial dilutions of ligand in uniform buffer, starting with the working Uigand concentration, were incubated with equal volumes of a fixed concentration of labelled IL8. After 30 minutes incubation at room temperature, 16 Monolith NT. 15 standard capillaries were loaded with 10 μl volumes of each of the ligand/IL18 preparations. Tests described in Results were run at 3700.
Experiments were performed on a Monolith NT.115Pico machine (NanoTemper Technologies GmbH, Germany). Data quality and analysis and graphic rendering were performed using MO.Affinity Analysis v2.3 software from NanoTemper technologies. Evaluation strategy for all analyses was standardized to measure relative change of fluorescence (FNorm %) over a 2.5 second of laser induced temperature shift per capillary. Statistical analysis was performed using NanoTemper's MOControl software. The results of this assay for compounds 1, 10, and 15 are shown in FIGS. 7, 8, 9A, 9B, and […] and Table 3 describes the MST assay conditions.

[2] = tested on: Primary human saphenous vein smooth muscle (SMC); experiment: Alamar Blue assay for cell toxicity and proliferation, smooth muscle cells; conditions: 10 nM-10 μM, up to 72 hours; FIGS. 3D-3F, 4A, 4B
Protocol: Primary human saphenous vein smooth muscle (SMC) and endothelial cells (EC) were left untreated or treated with inhibitor compounds (10 nM-10 μM) for a period of 3-4 days. Cell proliferation was measured using our previously published Alamar Blue Assay (Monahan et al., FASEB J., 23:557-564, 2009; Yoshida et al., J. Am. Coll. Surg. 213:668-67, 2011).

IL18 [3] = experiment: HEK-Blue IL18 cell reporter assay (SEAP); format: cell-based; conditions: Phase I; HEK-Blue IL18 cells, co-treated with recombinant human IL18 15 pM-100 pM, 18 hours; FIGS. 1A-1D
Protocol: HEK-Blue IL18 Cell Reporter Assay
HEK-Blue IL18 Cells (Invivogen California, USA), are a derivative of HEK293 cells that have been stably transfected with IL18Rα/IL18RAP genes and a SEAP reporter gene that is expressed and secreted in specific response to IL18. Cells were grown in […] tissue culture flasks with DMEM culture medium containing 4.5 g/L glucose, 10% (v/v) heat-inactivated fetal bovine serum, 50 μ/mL penicillin, 50 μg/mL streptomycin, 100 μg/mL Normocin and 2 mM L-glutamine at 37° C. in 5% CO2.
Stock concentration of IL18 was 750 μM stored in Tris-HCl buffer at −80° C. For treatment use, compounds were diluted in sterile PBS to 100 times the intended treatment concentration and administered into wells containing 198 μl media at volumes of 2 μl. Total DMSO contents for all vehicles was less than 0.02% prior to treatment, and less than 0.0002% within wells following treatment.
HEK-Blue IL18 cells were transferred from flasks and seeded at 40-50% confluency on 96-well culture plates 6 hours prior to treatment.
Phase I: Cells were treated with compounds at concentrations of […], 7.5 pM, and 1.5 pM, with three replicate wells for each concentration, and six replicate wells with no compound treatment (NT). All wells were then immediately co-treated with recombinant human IL18 at one concentration between 15 pM-100 pM. Following treatments, cells were incubated at 37° C. in 5% CO2 for 18 hours. Cell confluency typically reached 70-80% (˜80,000-100,000 cells per well) by this point, 24 hours after seeding.
To detect SEAP activity, 20 μL supernatant from each well was transferred and mixed with 180 μl alkaline phosphatase detection medium (QUANTi-Blue, InvivoGen, California, USA), in a separate 96-well plate and incubated for 3 hours at room temperature. Supernatant SEAP activity was measured by reading the optical density (OD) at 640 nm using a spectrophotometer. OD values were standardized to NT mean=1.
Statistical analysis was performed GraphPad Prism (California, USA) software. One-Way analysis of variance (ANOVA) with Dunnett's post-hoc analysis was used to determine significant variation between treatment and control (NT) groups treated only with IL18.

[4] = tested on: human saphenous vein segments; experiment: Cytokine expression in human saphenous vein ex vivo (LPS challenge, multiplex ELISA); format: cell-based; conditions: LPS 100 ng/ml + compound 10 μM, 18 hours, culture supernatant
From the text: Example 2. Cytokine Expression in Human Saphenous Vein Ex Vivo
In this example, a cytokine storm/inflammation common to many vascular conditions has been modeled by challenging human saphenous vein segments with lipopolysaccharide (LPS). Discarded human saphenous vein samples were collected from patients undergoing peripheral bypass grafting.
Samples were subjected to Human (h) TheRPA (Therapeutic Responses Predictor Assay) which is based on ex-vivo treatment of biopsies (explant cultures). The tissues were transferred to the lab within 30 min of their harvesting and cultured in DMEM+10% FBS+1% antibiotic/antimycotic (DMEM plus glucose, glutamine, sodium pyruvate: Gibco 11995-065; Heat Inactivated FBS: Gibco 16140-089; Antibiotic-Antimycotic: Gibco 15240-096) in the presence of vehicle, LPS (100 ng/ml) or LPS (100 ng/ml)+compound 1/compound 10/compound 15 (10 μM). After 18 hours, culture supernatants were collected and kept at −80° C. Cytokine levels in cell culture supernatant were measured by multiplex ELISA (Milliplex map human cytokine/chemokine magnetic bead kit from Millipore).

[5] = tested on: IFN-γ gene expression in NK92 cells; experiment: IFN-γ gene expression induction in NK-92 cells (qRT-PCR); format: cell-based; conditions: 24 hours
Protocol: IFN-γ Gene Expression Induction in NK-92 Cells
IFN-γ gene and protein expression induction is a standard to measure IL-18 activity in NK92 cells (Kalina et al., J. Immunol. 165:1307-1313, 2000).
NK92 cells were treated with 1 μM concentration of compounds 1, 10, or […]. […] 24 hours after treatment, total RNA was harvested and qRT-PCR was conducted using a previously published protocols (Raof et al., BMC Genomics, 17-20, 2016; Monahan et al., FASEB J., 23:557-564, 2009) to measure the gene expression of IFN-γ.

[6] = tested on: IFN-γ gene expression in NK92 cells; conditions: Kalina et al., J. Immunol. 2000; positive control; cited from earlier work
[7] = tested on: Primary human saphenous vein endothelial cells (EC); experiment: Alamar Blue assay for cell toxicity and proliferation, endothelial cells; format: cell-based; conditions: 10 nM-10 μM, up to 76 hours; FIGS. 3A-3C
From the text: Alamar Blue Assay for Cell Toxicity and Proliferation

IL18 [8] = target: T1, IL18; conditions: background statement; read-out: affinity for hIL18; cited from earlier work
[9] = labelled IL18, 37.0° C., n 2, Table 3
[10] = FIG. 6, compound 1 μM, no treatment 1.33±0.85
[11] = FIG. 5, compound 1 μM, no treatment 1.06±0.38

Row | Kd (IL18 [1]; FIGS. 9A-9C) [nM] | Kd (IL18 [1]; [9]) [nM] | Molecule | IL-18 activity (SEAP reporter) (IL18 [3]) | IL-6 expression [4] | IL-8 expression [4] | TNF expression [4] | further results
1 | 2.27 | 2.27 | O=C1c2nn[nH]c2C(=O)c2nn[nH]c21 [Compound 10] | significantly reduce IL-18 activity | significantly inhibited | significantly inhibited | significantly inhibited | toxicity in SMC (Alamar Blue) [2]: no toxicity
2 | – | – | C[S+]([O-])c1ccc(-c2nc(-c3ccc(F)cc3)c(-c3ccncc3)[nH]2)cc1 (stereo not drawn) [Compound 1V] | – | – | – | – | IFN-γ expression in NK92 cells (literature statement) [6]: known inhibitor of IFN-γ expression in NK92 cells
3 | – | – | IL-18: Interleukin-18, pro-inflammatory cytokine used as stimulus of IFN-γ expression | – | – | – | – | IFN-γ expression [5, 11]: 5.52±3.43; IFN-γ expression [5, 10]: 7.9±7.23
4 | – | 5640 | CC(C)c1ccc(NC(=N)NC(=N)N)cc1 [Compound 15] | significantly reduce IL-18 activity | – | – | – | IFN-γ expression [5, 11]: 0.99±0.38; toxicity in EC (Alamar Blue) [7]: no toxicity; Kd (IL18 [1]; FIG. 9C): 5600 nM; toxicity in SMC (Alamar Blue) [2]: no toxicity
5 | – | – | Cc1ccc(Cc2ccc(C)c(N)c2)cc1N [Compound 5] | – | significantly inhibited | significantly inhibited | significantly inhibited | –
6 | 1.85 | 1.85 | IL18BP: Interleukin-18 Binding Protein, naturally occurring IL18 antagonist, soluble protein with a single Ig domain; positive control (protein, UniProt O95998 31-194, looked up) Interleukin-18-binding protein: TPVSQTTTAATASVRSTKDPCPSQPPVFPAAKQCPALEVTWPEVEVPLNGTLSLSCVACSRFPNFSILYWLGNGSFIEHLPGRLWEGSTSRERGSTGTQLCKALVLEQLTPALHSTNFSCVLVDPEQVVQRHVVLAQLWAGLRATLPPTQEALPSSHSSPQQQG | significantly reduce IL-18 activity | – | – | – | Kd (IL18 [8]): 0.4 nM

Row | Molecule | Kd (IL18 [1]; FIGS. 9A-9C) [nM] | Kd (IL18 [1]; [9]) [nM] | IL-18 activity (SEAP reporter) (IL18 [3]) | IL-6 expression [4] | IL-8 expression [4] | TNF expression [4] | further results
7 | Nc1cccc(Cc2cccc(N)c2)c1 [Compound 1] | 60.6 | 60.6 | significantly reduce IL-18 activity | significantly inhibited | significantly inhibited | significantly inhibited | IFN-γ expression [5, 10]: 0.04±0.02
